Experimental data published in patent US10485880B2, “Antibody-drug conjugates (ADCs) of KSP inhibitors with aglycosylated anti-TWEAKR antibodies” (Bayer Pharma Aktiengesellschaft, priority 2015, dated 2019).

Legend:
NCI-H292 cells = assay: Cytotoxicity of metabolites, MTT assay, NCI-H292; type: cell-based, human
Experimental: NCI-H292: human mucoepidermoid lung carcinoma cells, ATCC-CRL-1848, standard medium: RPMI 1640 (Biochrom; #FG1215, stab. glutamine)+10% FCS (Biochrom; #S0415), TWEAKR-positive, EGFR-positive.
The cells were cultivated according to the standard method using the growth media listed under C-1. The test is carried out by detaching the cells with a solution of Accutase in PBS (Biochrom AG #L2143), pelleting, resuspending in culture medium, counting and sowing into a 96-well culture plate with white bottom (Costar #3610) (NCI H292: 2500 cells/well, KPL-4: 1200 cells/well, LoVo: 1000 cells/well in a total volume of 100 μl). The cells were then incubated in an incubator at 37° C. and 5% carbon dioxide. After 48 h, the medium was replaced. The metabolites in 10 μl of culture medium in concentrations from 10^−5M to 10^−13M were then pipetted to the cells (in triplicate), and the assay was then incubated in an incubator at 37° C. and 5% carbon dioxide. […] To this end, the MTT reagent was incubated with the cells for 4 h, followed by lysis of the cells overnight by addition of the detergent. The dye formed was detected at 570 nm (Infinite M1000 pro, Tecan). The measured data were used to calculate the IC50 of the growth inhibition using the DRC (dose response curve). […]

TWEAKR = molecular target: T1, TWEAKR (Homo sapiens, UniProt Q9NP84); assay: Agonistic activity of anti-TWEAKR antibodies; type: cell-based
T1 construct: endogenous in cells; host or cells: HT29 (also WiDr, A253, NCI-H322, 786-O)
T1 sequence (Q9NP84 28-129): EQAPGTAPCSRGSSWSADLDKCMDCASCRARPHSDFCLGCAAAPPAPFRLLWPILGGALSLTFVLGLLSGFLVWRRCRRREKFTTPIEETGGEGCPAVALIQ
Excerpt: In this regard, one embodiment of the invention is the provision of antibodies or antigen-binding antibody fragments thereof binding specifically to a TWEAKR at a new epitope, distinguished by selective binding to aspartate (D) at position 47 (D47) of TWEAKR (SEQ ID NO: 169; see also FIG. 1). The identified dependencies of certain TWEAKR amino acids for antibody interaction correlate with the agonistic activity determined for these antibodies. […] Thus, TWEAK binds to a similar, but distinguishable binding site (FIG. 7). Accordingly, the antibodies of the present invention, which show strong agonistic activity, bind to a new epitope (as a function of D47) which is associated with very strong agonistic activity.

CC(C)(C)[C@H](c1cc(-c2cc(F)ccc2F)cn1Cc1ccccc1)N(CC[C@H](N)C(=O)NCCNC(=O)CNC(=O)CC(SC[C@H](N)C(=O)O)C(=O)O)C(=O)CO (stereo partly drawn) [Example M2-1, 4-[(2-{[2-({(2S)-2-Amino-4-[{(1R)-1-[1-benzyl-4-(2,5-difluorophenyl)-1H-pyrrol-2-yl]-2,2-dimethylpropyl}(glycoloyl)amino]butanoyl}amino)ethyl]amino}-2-oxoethyl)amino]-2-{[(2R)-2-amino-2-carboxyethyl]sulphanyl}-4-oxobutanoic acid/trifluoroacetic acid (1:1)]
IC50 (NCI-H292 cells; 96 h incubation): 265 nM

CC(C)(C)[C@H](c1cc(-c2cc(F)ccc2F)cn1Cc1ccccc1)N(CCCN)C(=O)CO [Example M9, N-(3-Aminopropyl)-N-{(1R)-1-[1-benzyl-4-(2,5-difluorophenyl)-1H-pyrrol-2-yl]-2,2-dimethylpropyl}-2-hydroxyacetamide]
IC50 (NCI-H292 cells; Homo sapiens, NCI-H292, 96 h incubation): 0.924 nM

B1: PLD-192: "PLD-192 shows moderate agonistic activity and binds as a function of R56 to the cysteine-rich domain, but opposite of the TWEAK ligand site" (antibody, chains of the INN, looked up, V domains shown)
VH: EVQLVESGGGLVQPGGSLRLSCAASGFTFSSYWMSWVRQAPGKGLEWVAEIRLKSDNYATHYAESVKGRFTISRDDSKNSLYLQMNSLRAEDTAVYYCTGYYADAMDYWGQGTLVTVSS
VL: DIQMTQSPSSLSASVGDRVTITCRASQSVSTSSYSYMHWYQQKPGKAPKLLIKYASNLESGVPSRFSGSGSGTDFTLTISSLQPEDFATYYCQHSWEIPYTFGGGTKVEIK
Agonistic activity (TWEAKR): moderate agonistic activity
